Measurements published in patent US7342016B2, “Farnesyl protein transferase inhibitors as antitumor agents” (Schering Corporation, priority 2000, dated 2008).
Values joined by “and” are separate entries in the source; they are usually repeats but may differ in a detail not shown here. Identical values can stand only once.

Key:
Test in all cases: In vivo anti-tumor study, s.c. tumor in athymic nu/nu female mice, percent inhibition of tumor growth
[1] = test system: HTB-177 human non small cell lung cancer cells; conditions: po, x3
Procedure: (§1) Various tumor cells (5×10^5 to 8×10^6) were innoculated subcutaneously into the flank of 5-6 week old athymic nu/nu female mice. Three tumor cell models were used: mouse fibroblasts transformed with H-Ras; HTB-177 human non small cell lung cancer cells or LOX human melanoma cells. Animals were treated with beta cyclodextran vehicle only or compounds in vehicle twice a day (BID) or once a day (QD) for 7 days per week for 1 (×1), 2 (×2) or 3 (×3) weeks. The percent inhibition of tumor growth relative to vehicle controls were determined by tumor measurements.

LOX human melanoma cells = conditions: po, BID, x1
Procedure: as §1

[2] = test system: mouse fibroblasts transformed with H-Ras; conditions: po, x2
Procedure: as §1

Cc1nccn1CC1=Cc2cccnc2C(N2CCN(C(=O)Nc3ccc(C#N)cc3)CC2)c2ccc(Cl)cc21 (stereo not shown) [(372)]
Average % Tumor Inhibition ([1]; 20 MPK, BID): 43% and 47%
Average % Tumor Inhibition ([1]; 40 MPK, BID): 79%
Average % Tumor Inhibition ([1]; 40 MPK, QD): 11%
Average % Tumor Inhibition ([1]; 60 MPK, BID): 87%
Average % Tumor Inhibition ([1]; 80 MPK, BID): 96%
Average % Tumor Inhibition ([1]; 120 MPK, QD): 54%
Average % Tumor Inhibition (LOX human melanoma cells; 15 MPK): 20.9%
Average % Tumor Inhibition (LOX human melanoma cells; 30 MPK): 54.8%
Average % Tumor Inhibition (LOX human melanoma cells; 60 MPK): 90.3%
Average % Tumor Inhibition ([2]; 6.6 MPK, BID): 19%
Average % Tumor Inhibition ([2]; 10 MPK, BID): 70%
Average % Tumor Inhibition ([2]; 20 MPK, BID): 59%
Average % Tumor Inhibition ([2]; 20 MPK, QD): 55%
Average % Tumor Inhibition ([2]; 40 MPK, BID): 92%
Average % Tumor Inhibition ([2]; 60 MPK, BID): 98%
Average % Tumor Inhibition ([2]; 80 MPK, QD): 91%
